Experiments:
Vitis vinifera [1] = assay: Phytotoxicity against grape leaf assessed as decrease in chlorophyll level after 64 hrs by leaf disk assay relative to control; format: organism-based; set-up: scale not given: the % may be the effect or the level left; settings: in vivo
Vitis vinifera [2] = assay: Phytotoxicity against grape leaf by leaf disk assay; format: organism-based; settings: in vivo

With `CC1(C)C=Cc2cc(CO)ccc2O1` [EULATACHROMENE] the Activity (Vitis vinifera [1]) was 60%.

`C=C(C)C#Cc1cc(C=O)ccc1O` [EUTYPINE] was tested, and the Activity (Vitis vinifera [2]) was “Active”.

`C=C(C)C#Cc1cc(O)ccc1O` [SICCAYNE] was tested, and the Activity (Vitis vinifera [2]) was “Not Active”.

Source: ChEMBL document CHEMBL1158899, “Synthesis and structure-phytotoxicity relationships of acetylenic phenols and chromene metabolites, and their analogues, from the grapevine pathogen Eutypa lata” (J Nat Prod, 2003)
